Data as given in patent US9556113B2, “Combination uses of dichloroacetate and oxamate, and their prodrugs, for cancer treatment” (The South Dakota Board of Regents, priority 2014, dated 2017).

Assays:
[1] = In vivo release of DCA and oxamate from prodrugs, blood LC/MS/MS; set-up: species or system female C57BL/6 mice; conditions: i.p., 7.6 mg/mouse
Procedure: FIG. 16 provides LC/MS chromatograms derived from blood samples of mice dosed with prodrug 1 (AT-N4-001) (A). Mice were dosed with prodrug 1 (7.6 mg/mouse) by i.p. Blood samples were collected at 5 min and 25 min for mice dosed with prodrug 1 through retro-orbital bleeding with mice under general anesthesia. After protein precipitation by acetonitrile, samples were analyzed by LC/MS/MS. For samples derived from mice dosed with prodrug 1, the electrospray ion source was operated in the negative ionization mode for four minutes to detect DCA and oxamate before switched to the positive ionization mode to detect prodrug 1. Selected reaction monitoring (SRM) was performed to monitor the mass transition of 386→297 (1), 127→83 (DCA) and selected ion monitoring (SIM) was performed to monitor oxamate at the m/z of 88.0.
FIG. 17 provides LC/MS chromatograms derived from blood samples of mice dosed with prodrug 2 (AT-N4-002) (B). Mice were dosed with prodrug 2 (7.6 mg/mouse) by i.p. Blood samples were collected at 5 min and 30 min for a mouse dosed with prodrug 2 through retro-orbital bleeding with mice under general anesthesia. After protein precipitation by acetonitrile, samples were analyzed by LC/MS/MS. For samples derived from mice dosed with prodrug 2, all the parameters were the same as set for prodrug 1 except the electrospray ion source was operated in the negative ionization mode for all the analytes. Prodrug 2 was detected by monitoring the mass transition of 384→126.
In vivo release of the prodrugs was investigated with female C57BL/6 mice. Mice were housed four in a cage and received food and water ad libitum. All mice were used at approximately 7-10 weeks of age and given at least one week break after arrival. All experimental protocols were approved by the Institutional Animal Care and Use Committee at South Dakota State University. A prodrug (1 or 2), suspended in 3% (v/v) Tween 80 in saline (30.4 mg/ml), was administered (7.6 mg/mouse) to mice by i.p. Blood samples were obtained through retro-orbital bleeding with mice under general anesthesia through the use of isoflurane. The blood samples were immediately frozen in liquid nitrogen and stored at −80° C. freezer before LC/MS/MS analysis.
The blood sample was quickly thawed at 37° C. The sample (200 μl) was first mixed with acetonitrile ([…]) and centrifuged at 14000 rpm for 2 min at 4° C. The precipitates were washed with additional acetonitrile (2×200 μl) and centrifuged. […]
LC/MS/MS analysis was completed on a ThermoFinnigan TSQ Quantum Ultra triple quadrupole mass spectrometer coupled with an Agilent Eclipse XDB-C18 column ([…], 5 μm) equipped with an Agilent XDB-C8 guard column. […] Prodrug 2 was detected by monitoring the mass transition of 384→126.

E6E7/Ras cells = assay: Lactate secretion into culture medium, enzyme based assay; format: cell-based, mouse; conditions: 5 mM each, 4 hours
Procedure: FIG. 5 illustrates the reduction of lactate secretion in cultured cells by prodrugs AT-N4-001 and AT-N4-002. E6E7Ras cells were plated in 100 mm dishes and grown to confluence. The medium was changed to bicarbonate-free DMEM-10% FBS with or without the indicated treatments (5 mM each). Four hours later the medium was collected and lactate was measured using an enzyme based assay from Eton Bioscience. Con indicates the control samples for the DCA and Oxamate samples. DMSO indicates the vehicle only control for the AT-N4-001 and AT-N4-002 prodrug samples.
AT-N4-001 and AT-N4-002 should each release two molecules of DCA and one molecule of oxamate. Both DCA and oxamate are expected to reduce cellular lactate production. Therefore, we examined the changes in lactate after treatment of E6E7/Ras cells with the prodrugs. E6E7/Ras cells were seeded into 100 mm dishes and the next day treated with 5 mM AT-N4-001, 5 mM AT-N4-002, 5 mM DCA plus 5 mM oxamate, or 5 mM DCA alone. Culture medium was collected after 4 hours of treatment and lactate levels were determined (FIG. 5). […] To confirm the effects of these compounds on lactate production, the extra cellular acidification rate (ECAR) was measured using a Seahorse XF24 Extracellular Flux analyzer. Since lactate is transported from cells together with a proton, acidification of the culture medium (ECAR) is an estimate of lactate production and the glycolytic rate of cells. In the experiment shown in FIG. 6A, ECAR measurements were initiated in the absence of glucose. At point A, glucose was added and ECAR measurements continued. […] At point B, additional glucose along with vehicle (control), DCA plus oxamate, or AT-N4-002 was added. […] This is shown by a bar graph in FIG. 6B.

E6E7/Ras MTE cells [2] = assay: Clonogenic growth (colony formation); format: cell-based, mouse; conditions: 7 days; for number of colonies compared to DCA treated cultures (FIG. 4C): 5 mM prodrug vs 10 mM DCA; for colony size (FIG. 4B): 5 mM prodrugs, 10 mM DCA, vs DMSO
Procedure: (§1) FIG. 4 illustrates prodrugs AT-N4-001 and AT-N4-002 inhibiting cell proliferation and colony growth of E6E7/Ras MTE cells. (A) E6E7/Ras MTE cultures were treated with DMSO (Con), AT-N4-001, or AT-N4-[…] 002 at the indicated concentration for one day. Live cell number was then determined using a trypan blue exclusion assay. (B) E6E7/Ras MTE cells were seeded on 100-mm plate at 500 cells per plate (in triplicate). After one day, cells were treated as indicated and allowed to grow until colonies of untreated controls reached 50 or more cells (7 days). Plates were stained with Coomassie blue to visualize the colonies. (C) Quantification of colonies described in B. Colonies with more than 15 cells were counted.
(§2) E6E7/Ras MTE cells are mouse tonsilar epithelial cells that have been transformed by HPV oncogenes E6 and E7 together with activated ras. They form tumors in mice and are a model of human HPV+HNSCC. These cells were treated in culture with either vehicle control (DMSO), AT-N4-001, or AT-N4-002 at concentrations of 1 mM, 2.5 mM and 5 mM for one day. Live cells were counted using a hemocytometer (FIG. 4A). […] The effects of the compounds on clonogenic growth of the cells were also tested. E6/E7/Ras MTE cells were seeded in 100 mm plates in triplicate, and the next day cells were treated with either vehicle control DMSO, 5 mM AT-N4-001, 5 mM AT-N4-002, or 10 mM DCA. DCA was used at a twice the concentration because the prodrugs each carry two molecules of DCA.

E6E7/Ras MTE cells [3] = assay: Live cell number, trypan blue exclusion assay; format: cell-based, mouse; conditions: 1 mM, 2.5 mM and 5 mM, one day, vs DMSO
Procedure: as §1
as §2, with “DCA was used at a twice the concentration because the prodrugs each carry two molecules of DCA.” left out

| SMILES | release of DCA and oxamate in vivo [1] | prodrug in blood samples ([1]; after 25 min) | lactate production (culture medium, FIG. 5) (E6E7/Ras cells) | number of colonies compared to DCA treated cultures (FIG. 4C) (E6E7/Ras MTE cells [2]) | colony size (FIG. 4B) (E6E7/Ras MTE cells [2]) | live cell number (FIG. 4A) (E6E7/Ras MTE cells [3]) | prodrug in blood samples ([1]; after 30 min) |
| --- | --- | --- | --- | --- | --- | --- | --- |
| NC(=O)C(=O)OC(COC(=O)C(Cl)Cl)COC(=O)C(Cl)Cl [AT-N4-001, 2-(2-Amino-2-oxoacetoxy)propane-1,3-diyl bis(2,2-dichloroacetate)] | quickly released DCA and oxamate | No prodrug was detected | significantly reduce lactate production | significantly lower | approximately equal reductions in colony size | significant reductions in live cell number |  |
| NC(=O)C(=O)OCC(COC(=O)C(Cl)Cl)OC(=O)C(Cl)Cl (stereo not drawn) [AT-N4-002, 3-(2-amino-2-oxoacetoxy)propane-1,2-diyl bis(2,2-dichloroacetate)] | quickly released DCA and oxamate |  | significantly reduce lactate production | significantly lower | approximately equal reductions in colony size | significant reductions in live cell number | No prodrug was detected |
